For data set [1] the following is noted: literature, and its derivatives; cited from earlier work.
For data set [2] the following is noted: animal experiments, Svoboda and Azarnoff, Cancer Res. 39, 3419 (1979); cited from earlier work.
Data set [3] relates to emulsion-induced hyperlipidemic rats. The experiment in a line: antihyperlipidemic activity in emulsion-induced hyperlipidemic rats. In kind it is in vivo. Particulars: Rattus norvegicus, po, 72 h, 300 mg/kg daily via stomach tube, 3 days, male S.D. rats, lipids emulsion, versus control group; for change in vivo at 300 mg/kg: "-" = reduction rate, read-out: Increase rate of serum HDL-Chol.; for inhibition in vivo at 300 mg/kg: read-out: Reduction rate of serum Chol. The procedure:
The antihyperlipidemic activity in emulsion-induced hyperlipidemic rats: Male S. D. rats weighing 80-90 g (4 weeks old) were used. They were devided into groups of 5 to 6 rats each. The test compounds suspended in 0.5% CMC-Na(carboxymethyl cellulose sodium salt) were given to the rats in a daily dose of 4.0 ml/kg (i.e. 300 mg/kg of the test compounds) via stomach tube every 10:00 a.m. After 30 min., lipids emulsion having the following composition was orally given to the rats in an amount of 2.5 ml per rat. During the experimental period of 3 days, the rats were fed on a standard commercial diet and water ad libitum. […] The total cholesterol and HDL cholesterol were measured. The weight of the liver was measured. To the control group, only the aqueous CMC-Na solution and the lipids emulsion were given. The fractionation of lipoproteins was conducted by a dextran sulfate-MgCl2 precipitation method. Cholesterol in serum was measured by means of a cholesterol measuring kit (Cholesterol C-Test Wako, manufactured by Wako Junyaku Co., Ltd.), and cholesterol in HDL was measured by means of NC Hi-Set, manufactured by Nippon Chemiphar Co., Ltd. In the following description, cholesterol is referred to as "Chol". Further, the reduction rate of Chol was calculated by the following equation. [formula] where A is the amount of serum Chol (mg/dl) of the control group, and B is the amount of serum Chol (mg/dl) of the group to which the therapeutic agent was administered. Likewise, the increase rate of serum HDL-Chol was calculated by the following equation. [formula] where C is the amount of serum HDL-Chol (mg/dl) of the control group, and D is the amount of serum HDL-Chol (mg/dl) of the group to which the therapeutic agent was administered.

Data set [4] can be described thus: acute toxicity (mortality after seven days). Particulars: mouse, in vivo, po, 4000 mg/kg p.o., male ddY mice. As for the experimental part: The test compounds suspended in 0.5% CMC-Na were administered p.o. to male ddY mice. The acute toxicity was determined based on the mortality after seven days. In respect of the Compound Nos. 1, 2, 3, 4, 6, 7, 10, 12 and 13 of the present invention, the mortality was 0% even at a dose of as high as 4000 mg/kg by oral administration.

Usually mortality stands for the share of the test organisms that died. A low value points to a weak lethal effect.

Consider `CCOC(=O)C(C)(C)Oc1ccc(Cl)cc1` [Clofibrate, reference compound], for which the side effects reported entry in data set [1] is “myalgia or hepatic insufficiency,and they are likely to lead to gallstone formation”. Besides, the hepatic carcinoma result in data set [2] is “brings about hepatic carcinoma on animal experiments”. Further, in data set [3], the change in vivo at 300 mg/kg was -8% and the inhibition in vivo at 300 mg/kg came out at 45%.

Consider `COc1ccc(C2SC(=S)N(C)C(c3ccc(OC)cc3)N2C)cc1` (stereo not shown) [Compound No. 1, 3,5-Dimethyl-4,6-di(p-methoxyphenyl)-tetrahydro-2H-1,3,5-thiadiazine-2-thione], for which the mortality at 168 h in data set [4] amounted to 0%. Besides, in data set [3], the change in vivo at 300 mg/kg was determined as 53% and the inhibition in vivo at 300 mg/kg was 42%.

Turning to `COc1cccc(C2SC(=S)N(C)C(c3cccc(OC)c3)N2C)c1` (stereo not shown) [Compound No. 2], the mortality at 168 h in data set [4] is 0%. Moreover, in data set [3], the change in vivo at 300 mg/kg amounted to 25% and the inhibition in vivo at 300 mg/kg was 41%.

With `COc1ccccc1C1SC(=S)N(C)C(c2ccccc2OC)N1C` (stereo not shown) [Compound No. 3], the mortality at 168 h in data set [4] was found to be 0%. Moreover, in data set [3], the change in vivo at 300 mg/kg is 33% and the inhibition in vivo at 300 mg/kg was 32%.

In data set [4], `Cc1ccc(C2SC(=S)N(C)C(c3ccc(C)cc3)N2C)cc1` (stereo not shown) [Compound No. 4] displayed a mortality at 168 h of 0%. Besides, in data set [3], the change in vivo at 300 mg/kg stood at 99% and the inhibition in vivo at 300 mg/kg is 49%.

`Cc1cccc(C2SC(=S)N(C)C(c3cccc(C)c3)N2C)c1` (stereo not shown) [Compound No. 5]: in data set [3], the change in vivo at 300 mg/kg worked out at 52% and the inhibition in vivo at 300 mg/kg was found to be 44%.

`Cc1ccccc1C1SC(=S)N(C)C(c2ccccc2C)N1C` (stereo not shown) [compound 6] returned a mortality at 168 h in data set [4] of 0%. In data set [3], the change in vivo at 300 mg/kg was 61% and the inhibition in vivo at 300 mg/kg was 40%.

`CCOc1ccccc1C1SC(=S)N(C)C(c2ccccc2OCC)N1C` (stereo not shown) [compound 7]: in data set [4], the mortality at 168 h was 0%. For the same molecule, in data set [3], the change in vivo at 300 mg/kg worked out at 14% and the inhibition in vivo at 300 mg/kg amounted to 37%.

For the molecule `CN1C(=S)SC(c2ccc(F)cc2)N(C)C1c1ccc(F)cc1` (stereo not shown) [compound 8], in data set [3], the change in vivo at 300 mg/kg turned out to be 37% and the inhibition in vivo at 300 mg/kg amounted to 26%.

For the molecule `CC(C)c1ccc(C2SC(=S)N(C)C(c3ccc(C(C)C)cc3)N2C)cc1` (stereo not shown) [compound 9], in data set [3], the change in vivo at 300 mg/kg is 56% and the inhibition in vivo at 300 mg/kg turned out to be 30%.

Molecule `CN1C(=S)SC(c2ccc(Oc3ccccc3)cc2)N(C)C1c1ccc(Oc2ccccc2)cc1` (stereo not shown) [compound 10] registered a mortality at 168 h in data set [4] of 0%. In data set [3], the change in vivo at 300 mg/kg was -23% and the inhibition in vivo at 300 mg/kg turned out to be 53%.

Turning to `CSc1ccc(C2SC(=S)N(C)C(c3ccc(SC)cc3)N2C)cc1` (stereo not shown) [compound 11], in data set [3], the change in vivo at 300 mg/kg is 53% and the inhibition in vivo at 300 mg/kg was 13%.

In data set [4], `COc1ccc(C2SC(=S)N(C)C(c3ccc(OC)cc3OC)N2C)c(OC)c1` (stereo not shown) [compound 12] showed a mortality at 168 h of 0%. Further, in data set [3], the change in vivo at 300 mg/kg is 46% and the inhibition in vivo at 300 mg/kg was 31%.

Molecule `CN1C(=S)SC(c2ccc3c(c2)OCO3)N(C)C1c1ccc2c(c1)OCO2` (stereo not shown) [compound 13] came in with a mortality at 168 h in data set [4] of 0%. In data set [3], the change in vivo at 300 mg/kg was found to be 54% and the inhibition in vivo at 300 mg/kg came to 52%.

For the molecule `COc1cc(C2SC(=S)N(C)C(c3cc(OC)c(OC)c(OC)c3)N2C)cc(OC)c1OC` (stereo not shown) [compound 14], in data set [3], the change in vivo at 300 mg/kg came to 6% and the inhibition in vivo at 300 mg/kg came out at 19%.

In the case of `CCN1C(=S)SC(c2ccccc2)N(CC)C1c1ccccc1` (stereo not shown) [compound 15], in data set [3], the change in vivo at 300 mg/kg amounted to 31% and the inhibition in vivo at 300 mg/kg came to 45%.

For the molecule `COc1cccc(C2SC(=S)N(C)C(c3cccc(OC)c3OC)N2C)c1OC` (stereo not shown) [compound 16], in data set [3], the change in vivo at 300 mg/kg amounted to 44% and the inhibition in vivo at 300 mg/kg worked out at 34%.

`O=C(O)c1cccnc1` [nicotinic acid]: the side effects reported result in data set [1] is given as “flashing or gastroenteric troubles”.

Source of the values: patent publication US4639444A, “3,5-dialkyl-4,6-diaryl-tetrahydro-2H-13,5-thiadiazine-2-thione derivative, process for its production and antihyperlipidemic agent containing it” (Nissan Chemical Industries Ltd., priority 1984, dated 1987).
